Assay results published in patent publication US20220039384A1, “SELECTIVE WEED CONTROL WITH HALAUXIFEN OR 4-AMINO-3-CHLORO-5-FLUORO-6-(4-CHLORO-2-FLUORO-3-METHOXYPHENYL) PYRIDINE-2-CARBOXYLIC ACID OR DERIVATIVES THEREOF IN VINEYARDS OR PERENNIAL CROPS” (Corteva Agriscience LLC, priority 2013, published 2022).

Key:
Type in all cases: in vivo
[1] = system: EROCI (Erodium cicutarium, redstem filaree); assay: Field trial, post-emergence directed spring application (April), California vineyards: visual weed control
Description: (§1) As used herein, selective pre- and post-emergence control of undesirable vegetation means preventing, reducing, killing, or otherwise adversely modifying the development of the undesirable vegetation in the presence of crop plants with limited adverse effect on the crop plants. For example, a broadleaf weed control of 80% (rated visually) with crop injury of less than or equal to 20% (rated visually) would constitute selective control. In some embodiments the adverse effect on crop plants is limited to less than 10% visually rated crop injury. Visual crop injury is a composite rating accounting for all phytotoxic effects including chlorosis, necrosis, growth inhibition, epinasty, delays in maturity and seed or fruit deformity. Visual weed control is a composite rating accounting for reductions in pest plant biomass and/or stand reduction.
(§2) Small plot research experiments were conducted in Fresno, Calif., USA to evaluate the pre-emergence and post-emergence herbicidal weed control activity and the vines crop tolerance to pre-emergence and post-emergence application of Compound I and Compound II to the weeds. Application water volume of 100 to 187 liters per hectare (L/ha) was used for all experiments. All treatments were applied with a standard small plot carbon dioxide (CO2) backpack sprayer. All treatments were tank-mixed with Crop Oil Concentrate (COC), a well known adjuvant, at 2.34 L/ha. Experimental emulsifiable concentrate (EC) formulations were used for Compounds I and II. The dimethylammonium (DMA) salt of glyphosate was used in all trials. Pindar® GT is a commercial formulation containing a pre-mix of penoxsulam+oxyfluorfen (10+476 grams of active ingredient per liter (g ai/L), respectively). Vine crop stage was dormant (no leaves on the vines during the winter) or early spring growth at the time of Compound I or Compound II application. Generally, weeds were not emerged for the pre-emergence treatments or were at the two to six-leaf stage at the time of the post-emergence herbicide application.
(§3) Tables 1, 2 and 6 provide weed control results from pre-emergence applications of Compounds I and/or II prior to weed emergence; Tables 4, 7 and 8 provide weed control results from post-emergence applications of Compounds I and/or II applied to actively growing weeds; Tables 3 and 5 provide vine response data from pre-emergence and post-emergence applications of Compound I respectively.

[2] = system: ERIBO (Conyza bonariensis, hairy fleabane); assay: as above
Description: as §1, §2, §3

[3] = system: PANCA (Panicum capillare, witchgrass); assay: as above
Description: as §1, §2, §3

[4] = system: SETFA (Setaria faberi, giant foxtail); assay: as above
Description: as §1, §2, §3

[5] = system: AGRRE (Agropyron repens, quackgrass); assay: as above
Description: as §1, §2, §3

[6] = system: MALPA (Malva parviflora, smallflower malva); assay: as above
Description: as §1, §2, §3

[7] = system: EROCI (Erodium cicutarium, redstem filaree); assay: Field trial, pre-emergence dormant application (December), California vineyards: visual weed control; details: applied prior to weed emergence
Description: as §1, §2, §3

[8] = system: CAPBP (Capsella bursa-pastoris, Shepherd's purse); assay: as above; details: applied prior to weed emergence
Description: as §1, §2, §3

[9] = system: POAAN (Poa annua, annual bluegrass); assay: as above; details: applied prior to weed emergence
Description: as §1, §2, §3

[10] = system: PANCA (Panicum capillare, witchgrass); assay: as above; details: applied prior to weed emergence
Description: as §1, §2, §3

[11] = system: HORMU (Hordeum murinam, wall barley); assay: as above; details: applied prior to weed emergence
Description: as §1, §2, §3

[12] = system: ERICA (Conyza canadensis, horseweed); assay: as above; details: applied prior to weed emergence
Description: as §1, §2, §3

[13] = system: MALPA (Malva parviflora, smallflower malva); assay: as above; details: applied prior to weed emergence
Description: as §1, §2, §3

[14] = system: EROCI (Erodium cicutarium, redstem filaree); assay: Field trial, post-emergence directed spring application (March), California vineyards: visual weed control
Description: as §1, §2, §3

[15] = system: MEDPO (Medicago polymorpha, California burclover); assay: as above
Description: as §1, §2, §3

[16] = system: STEME (Stellaria media, common chickweed); assay: as above
Description: as §1, §2, §3

[17] = system: MALPA (Malva parviflora, smallflower malva); assay: as above
Description: as §1, §2, §3

For `COC(=O)c1nc(-c2ccc(Cl)c(OC)c2F)cc(N)c1Cl` [I—Me, methyl 4-amino-3-chloro-6-(4-chloro-2-fluoro-3-methoxyphenyl)pyridine-2-carboxylate], the “% Visual Control 60 DAA EROCI” value ([1]; 5 g ae/ha) was 62%, the “% Visual Control 60 DAA EROCI” value ([1]; 10 g ae/ha) was 70% and the “% Visual Control 60 DAA EROCI” value ([1]; 20 g ae/ha) was 86%. For the same compound, the “% Visual Control 60 DAA ERIBO” value ([2]; 5 g ae/ha) was 97%, the “% Visual Control 60 DAA ERIBO” value ([2]; 10 g ae/ha) was 95% and the “% Visual Control 60 DAA ERIBO” value ([2]; 20 g ae/ha) was 93%. For the same compound, the “% Visual Control 60 DAA PANCA” value ([3]; 5 g ae/ha) was 82%, the “% Visual Control 60 DAA PANCA” value ([3]; 10 g ae/ha) was 88% and the “% Visual Control 60 DAA PANCA” value ([3]; 20 g ae/ha) was 86%. The “% Visual Control 60 DAA SETFA” value ([4]; 5 g ae/ha) was 98%, the “% Visual Control 60 DAA SETFA” value ([4]; 10 g ae/ha) was 80% and the “% Visual Control 60 DAA SETFA” value ([4]; 20 g ae/ha) was 97%. The “% Visual Control 60 DAA AGRRE” value ([5]; 5 g ae/ha) was 87%, the “% Visual Control 60 DAA AGRRE” value ([5]; 10 g ae/ha) was 80% and the “% Visual Control 60 DAA AGRRE” value ([5]; 20 g ae/ha) was 83%. For the same compound, the “% Visual Control 60 DAA MALPA” value ([6]; 5 g ae/ha) was 75%, the “% Visual Control 60 DAA MALPA” value ([6]; 10 g ae/ha) was 72% and the “% Visual Control 60 DAA MALPA” value ([6]; 20 g ae/ha) was 73%. The “% Visual Control 90 DAA EROCI” value ([7]; 10 g ae/ha) was 58%, the “% Visual Control 184 DAA EROCI” value ([7]; 10 g ae/ha) was 47% and the “% Visual Control 90 DAA EROCI” value ([7]; 20 g ae/ha) was 72%. The “% Visual Control 184 DAA EROCI” value ([7]; 20 g ae/ha) was 52%, the “% Visual Control 90 DAA EROCI” value ([7]; 40 g ae/ha) was 82% and the “% Visual Control 184 DAA EROCI” value ([7]; 40 g ae/ha) was 55%. The “% Visual Control 90 DAA CAPBP” value ([8]; 10 g ae/ha) was 62%, the “% Visual Control 90 DAA CAPBP” value ([8]; 20 g ae/ha) was 58% and the “% Visual Control 90 DAA CAPBP” value ([8]; 40 g ae/ha) was 82%. For the same compound, the “% Visual Control 90 DAA POAAN” value ([9]; 10 g ae/ha) was 58%, the “% Visual Control 184 DAA POAAN” value ([9]; 10 g ae/ha) was 48% and the “% Visual Control 90 DAA POAAN” value ([9]; 20 g ae/ha) was 65%. The “% Visual Control 184 DAA POAAN” value ([9]; 20 g ae/ha) was 28%, the “% Visual Control 90 DAA POAAN” value ([9]; 40 g ae/ha) was 63% and the “% Visual Control 184 DAA POAAN” value ([9]; 40 g ae/ha) was 47%. For the same compound, the “% Visual Control 184 DAA PANCA” value ([10]; 10 g ae/ha) was 60%, the “% Visual Control 184 DAA PANCA” value ([10]; 20 g ae/ha) was 33.3% and the “% Visual Control 184 DAA PANCA” value ([10]; 40 g ae/ha) was 63.3%. For the same compound, the “% Visual Control 90 DAA HORMU” value ([11]; 10 g ae/ha) was 100%, the “% Visual Control 184 DAA HORMU” value ([11]; 10 g ae/ha) was 90% and the “% Visual Control 90 DAA HORMU” value ([11]; 20 g ae/ha) was 100%. For the same compound, the “% Visual Control 184 DAA HORMU” value ([11]; 20 g ae/ha) was 88%, the “% Visual Control 90 DAA HORMU” value ([11]; 40 g ae/ha) was 100% and the “% Visual Control 184 DAA HORMU” value ([11]; 40 g ae/ha) was 92%. The “% Visual Control 90 DAA ERICA” value ([12]; 10 g ae/ha) was 75%, the “% Visual Control 184 DAA ERICA” value ([12]; 10 g ae/ha) was 92% and the “% Visual Control 90 DAA ERICA” value ([12]; 20 g ae/ha) was 100%. The “% Visual Control 184 DAA ERICA” value ([12]; 20 g ae/ha) was 97%, the “% Visual Control 90 DAA ERICA” value ([12]; 40 g ae/ha) was 100% and the “% Visual Control 184 DAA ERICA” value ([12]; 40 g ae/ha) was 100%. The “% Visual Control 90 DAA MALPA” value ([13]; 10 g ae/ha) was 85%, the “% Visual Control 184 DAA MALPA” value ([13]; 10 g ae/ha) was 45% and the “% Visual Control 90 DAA MALPA” value ([13]; 20 g ae/ha) was 88%. For the same compound, the “% Visual Control 184 DAA MALPA” value ([13]; 20 g ae/ha) was 60%, the “% Visual Control 90 DAA MALPA” value ([13]; 40 g ae/ha) was 89% and the “% Visual Control 184 DAA MALPA” value ([13]; 40 g ae/ha) was 47%. For the same compound, the “% Visual Control 59 DAA EROCI” value ([14]; 2.5 g ae/ha) was 43.3%, the “% Visual Control 59 DAA EROCI” value ([14]; 5 g ae/ha) was 89.7% and the “% Visual Control 59 DAA EROCI” value ([14]; 10 g ae/ha) was 94%. For the same compound, the “% Visual Control 59 DAA MEDPO” value ([15]; 2.5 g ae/ha) was 100%, the “% Visual Control 59 DAA MEDPO” value ([15]; 5 g ae/ha) was 100% and the “% Visual Control 59 DAA MEDPO” value ([15]; 10 g ae/ha) was 100%. For the same compound, the “% Visual Control 59 DAA STEME” value ([16]; 2.5 g ae/ha) was 46.7%, the “% Visual Control 59 DAA STEME” value ([16]; 5 g ae/ha) was 94% and the “% Visual Control 59 DAA STEME” value ([16]; 10 g ae/ha) was 95.7%. The “% Visual Control 59 DAA MALPA” value ([17]; 2.5 g ae/ha) was 80%, the “% Visual Control 59 DAA MALPA” value ([17]; 5 g ae/ha) was 90% and the “% Visual Control 59 DAA MALPA” value ([17]; 10 g ae/ha) was 96.7%.
